Test systems include Staphylococcus aureus; Vibrio splendidus SATMAR; Vibrio splendidus LGP-32; Salmonella typhimurium.
Holding throughout (assay): ≥ marks a high value that may be exact or a test limit, other limits are often not marked, values filed in µg/mL are converted to µM
Test [1] relates to Batrachochytrium dendrobatidis JEL-197.
Test [2] deals with Enterobacter cloacae NHTCC 53001.
Test [3] concerns Candida albicans ATCC 90028.
For test [4], the system named is Klebsiella pneumoniae KK3 9904.
The subject of test [5] is Escherichia coli ATCC 25922.
In test [6] the test system is Pseudomonas aeruginosa ATCC 27853.
In test [7] the test system is Staphylococcus aureus NCTC 8325.
For test [8], the system named is Staphylococcus aureus ATCC 6538.
Test [9] deals with Enterococcus faecalis NCTC 12697.
Test [10] concerns Pseudomonas aeruginosa ATCC 9027.
Test [11] deals with Staphylococcus aureus ATCC 12493.
Test [12] has as its system Klebsiella pneumoniae ATCC BAA-1705.
Test [13] relates to Staphylococcus aureus ATCC 43300.
For test [14], the system named is Klebsiella pneumoniae ATCC 43816.
For test [15], the system named is Candida albicans ATCC 10231.
Test [16] concerns Escherichia coli ATCC BAA-2340.
In test [17] the test system is Staphylococcus aureus B038 V1S1A.
Test [18] relates to Vibrio vulnificus CIP 109783.
In test [19] the test system is Vibrio alginolyticus IFREMER.
Test [20] has as its system Vibrio splendidus IFREMER.
In test [21] the test system is Pseudomonas aeruginosa CIP A22.
Test [22] concerns Klebsiella pneumoniae CIP 52.145.
The subject of test [23] is Escherichia coli CIP 54.8.
Test [24] concerns Salmonella typhimurium LME, Caen.
In test [25] the test system is Aeromonas salmonicida CIP 103209T.
For test [26], the system named is Staphylococcus aureus CIP 53.156.
Test [27] relates to Bacillus megaterium CIP 51.17.
The test system of test [28] is Listeria monocytogenes LME, Caen.
Test [29] has as its system Enterococcus faecalis CIP 76.117.
The subject of test [30] is Vibrio aestuarianus IFREMER.
Test [31] concerns Vibrio aestuarianus CIP 109791T.
Test [32] deals with Vibrio parahaemolyticus Vp+1.
The test system of test [33] is Photobacterium damselae subsp. piscicida Sp 9587.
The subject of test [34] is Aeromonas salmonicida NCIMB 1102.
The subject of test [35] is Shewanella putrefaciens IAM 1509.
The test system of test [36] is Bacillus subtilis IAM 1026.
For test [37], the system named is Escherichia coli JCM 1649.
The test system of test [38] is Vibrio anguillarum NCIMB 829.
Test [39] concerns Staphylococcus aureus IAM 1011.

Values after ≈ are worked out from the molar mass of the structure shown. Values joined by “and” are separate entries in the source; they are usually repeats but may differ in a detail not shown here. Identical values can stand only once.

In turn, `CC[C@H](C)[C@H](NC(=O)CN)C(=O)N[C@@H](CC(C)C)C(=O)N[C@@H](CC(=O)O)C(=O)N[C@@H](CO)C(=O)N[C@@H](Cc1ccccc1)C(=O)N[C@@H](CCCCN)C(=O)N[C@@H](CC(=O)O)C(=O)N[C@H](C(=O)N[C@@H](C)C(=O)N[C@@H](CCCCN)C(=O)NCC(=O)N[C@H](C(=O)N[C@@H](C)C(=O)N[C@H](C(=O)N[C@@H](Cc1cnc[nH]1)C(=O)N[C@@H](CC(C)C)C(=O)N[C@@H](CC(C)C)C(=O)N[C@@H](CC(N)=O)C(=O)N[C@@H](CCSC)C(=O)N[C@@H](C)C(=O)N[C@@H](CCCCN)C(=O)N[C@H]1CSSC[C@@H](C(=O)O)NC(=O)CNC(=O)[C@H]([C@@H](C)O)NC(=O)[C@H](CCSC)NC(=O)[C@H](CCCCN)NC1=O)[C@@H](C)O)C(C)C)C(C)C` [GILDSFKDVAKGVATHLLNMAKCKMTGC] displayed an MIC in test [1] not below 100 µM.

As to `CC[C@H](C)[C@H](NC(=O)[C@H](Cc1cnc[nH]1)NC(=O)[C@H](CCCCN)NC(=O)CNC(=O)[C@H](C)NC(=O)[C@@H](NC(=O)[C@H](CCCCN)NC(=O)[C@H](CC(C)C)NC(=O)[C@@H](NC(=O)CNC(=O)[C@H](CCCN=C(N)N)NC(=O)[C@H](Cc1ccccc1)NC(=O)[C@H](CC(C)C)NC(=O)[C@H](CO)NC(=O)[C@H](CCSC)NC(=O)[C@H](CC(C)C)NC(=O)CN)C(C)C)[C@@H](C)O)C(=O)N[C@@H](Cc1ccccc1)C(=O)N[C@@H](CCCCN)C(=O)N[C@@H](CC(N)=O)C(=O)N[C@H](C(=O)NCC(=O)NCC(=O)N[C@@H](CO)C(=O)N[C@@H](CC(C)C)C(=O)N[C@@H](CC(C)C)C(=O)N[C@@H](CC(=O)O)C(=O)N[C@@H](CCC(N)=O)C(=O)N[C@@H](C)C(=O)N[C@@H](CCCCN)C(=O)N[C@H]1CSSC[C@@H](C(=O)O)NC(=O)[C@H](CCC(=O)O)NC(=O)CNC(=O)[C@H]([C@@H](C)O)NC(=O)[C@H]([C@@H](C)CC)NC(=O)[C@H](CCCCN)NC1=O)C(C)C` [GLMSLFRGVLKTAGKHIFKNVGGSLLDQAKCKITGEC], the MIC is 6 µM (≈ 23.5 µg/mL) in test [2]; not below 100 µM in test [3]; 6 µM (≈ 23.5 µg/mL) in test [4]; 3 µM (≈ 11.8 µg/mL) in test [5]; 3 µM (≈ 11.8 µg/mL) in test [6]; 25 µM (≈ 98 µg/mL) in test [7].

As to `CC[C@H](C)[C@H](NC(=O)[C@H](CCCCN)NC(=O)[C@@H](NC(=O)[C@H](CO)NC(=O)[C@H](CC(N)=O)NC(=O)[C@H](Cc1c[nH]c2ccccc12)NC(=O)[C@H](CC(C)C)NC(=O)CN)[C@@H](C)CC)C(=O)N[C@@H](C)C(=O)NCC(=O)N[C@@H](CCCCN)C(=O)N[C@@H](CCCCN)C(=O)N[C@@H](CC(C)C)C(=O)N[C@@H](Cc1ccccc1)C(=O)N[C@H](C(=O)N[C@@H](CC(N)=O)C(=O)N[C@H](C(=O)N[C@@H](CC(C)C)C(=O)N[C@@H](CC(=O)O)C(=O)N[C@@H](CCCCN)C(=O)N[C@H](C(=O)N[C@@H](CCCN=C(N)N)C(=O)N[C@H]1CSSC[C@@H](C(=O)O)NC(=O)CNC(=O)CNC(=O)[C@H](C)NC(=O)[C@H](C(C)C)NC(=O)[C@H](CCCCN)NC1=O)[C@@H](C)CC)C(C)C)C(C)C` [GLWNSIKIAGKKLFVNVLDKIRCKVAGGC], the MIC was 1.6 µM and 4 µM in test [8]; 16 µM (≈ 50.1 µg/mL) in test [9]; 16 µM (≈ 50.1 µg/mL) in test [10]; not below 100 µM in test [3]; 8 µM (≈ 25 µg/mL) in test [11]; 4 µM (≈ 12.5 µg/mL) in test [12]. Also, the MIC in test [13] worked out at 12.5 µM (≈ 39.1 µg/mL); in test [14], 8 µM (≈ 25 µg/mL); in test [15], 128 µM (≈ 401 µg/mL); in the test with Staphylococcus aureus it was 4 µM (≈ 12.5 µg/mL); in test [16] it was 2 µM (≈ 6.26 µg/mL); in test [17], 2 µM (≈ 6.26 µg/mL).

In the case of `CC(C)C[C@H](NC(=O)CNC(=O)[C@H](Cc1ccccc1)NC(=O)[C@H](Cc1ccccc1)NC(=O)[C@H](CC(C)C)NC(=O)CNC(=O)[C@H](Cc1ccccc1)NC(=O)[C@H](CC(C)C)NC(=O)[C@@H]1CCCN1C(=O)[C@H](CCCCN)NC(=O)[C@H](CCCCN)NC(=O)[C@H](CCCCN)NC(=O)[C@@H](N)CCCCN)C(=O)N[C@@H](Cc1ccccc1)C(=O)O` [KKKKPLFGLFFGLF], the MIC was not below 50 µM in [18]; 4.23 µM (≈ 7.07 µg/mL) in test [19]; 14.1 µM (≈ 23.6 µg/mL) against Vibrio splendidus SATMAR; 8.47 µM (≈ 14.1 µg/mL) in test [20]; not below 33.9 µM in test [21]; not below 33.9 µM in [22]. For the same compound, the MIC was 24.5 µM (≈ 40.9 µg/mL) against Vibrio splendidus LGP-32; 4.23 µM (≈ 7.07 µg/mL) in test [23]; not below 33.9 µM in test [24]; 14.1 µM (≈ 23.6 µg/mL) in test [25]; 8.47 µM (≈ 14.1 µg/mL) in test [26]; 4.23 µM (≈ 7.07 µg/mL) in test [27]. Moreover, the MIC is 16.9 µM (≈ 28.3 µg/mL) in test [28], not below 67.7 µM in test [29], 4.23 µM (≈ 7.07 µg/mL) in test [30] and 14.1 µM (≈ 23.6 µg/mL) in [31].

In the case of `CC[C@H](C)[C@H](NC(=O)[C@H](C)NC(=O)CNC(=O)[C@@H](NC(=O)[C@@H](NC(=O)[C@H](CCC(N)=O)NC(=O)[C@@H]1CCCN1C(=O)[C@@H](NC(=O)[C@H](C)NC(=O)CNC(=O)[C@@H](NC(=O)[C@@H](NC(=O)[C@H](Cc1cnc[nH]1)NC(=O)[C@@H]1CCCN1C(=O)[C@H](CC(C)C)NC(=O)[C@H](CC(C)C)NC(=O)[C@@H]1CCCN1C(=O)[C@@H](NC(=O)[C@H](CC(C)C)NC(=O)[C@H](Cc1ccccc1)NC(=O)CNC(=O)[C@H](Cc1ccccc1)NC(=O)[C@@H](N)CC(C)C)[C@@H](C)CC)[C@@H](C)CC)[C@@H](C)CC)[C@@H](C)CC)C(C)C)[C@@H](C)CC)C(=O)N[C@@H](CCCN=C(N)N)C(=O)O` [LFGFLIPLLPHIIGAIPQVIGAIR], the MIC stood at 9.73 µM (≈ 25 µg/mL) in test [32]; 2.43 µM (≈ 6.25 µg/mL) in [33]; 19.5 µM (≈ 50 µg/mL) in test [34]; 2.43 µM (≈ 6.25 µg/mL) in test [35]; 4.87 µM (≈ 12.5 µg/mL) in test [36]; 19.5 µM (≈ 50 µg/mL) in test [37]. Further, the minimal inhibitory concentration (MIC) in test [38] was 9.73 µM (≈ 25 µg/mL); with Salmonella typhimurium, 19.5 µM (≈ 50 µg/mL); in [39] it was 2.43 µM (≈ 6.25 µg/mL).

As a reminder, the MIC is the smallest concentration in the dilution series that meets the test's criterion for growth inhibition. Higher therefore signals a need for much substance.

Source of the values: DBAASP.
